The source of these data is ChEMBL document CHEMBL3991601, “The target landscape of clinical kinase drugs” (Science, 2017).

Test [1] has as its target T1, STE20-related kinase adapter protein alpha (Homo sapiens, UniProt Q7RTN6).
T1 sequence (Q7RTN6 whole entry): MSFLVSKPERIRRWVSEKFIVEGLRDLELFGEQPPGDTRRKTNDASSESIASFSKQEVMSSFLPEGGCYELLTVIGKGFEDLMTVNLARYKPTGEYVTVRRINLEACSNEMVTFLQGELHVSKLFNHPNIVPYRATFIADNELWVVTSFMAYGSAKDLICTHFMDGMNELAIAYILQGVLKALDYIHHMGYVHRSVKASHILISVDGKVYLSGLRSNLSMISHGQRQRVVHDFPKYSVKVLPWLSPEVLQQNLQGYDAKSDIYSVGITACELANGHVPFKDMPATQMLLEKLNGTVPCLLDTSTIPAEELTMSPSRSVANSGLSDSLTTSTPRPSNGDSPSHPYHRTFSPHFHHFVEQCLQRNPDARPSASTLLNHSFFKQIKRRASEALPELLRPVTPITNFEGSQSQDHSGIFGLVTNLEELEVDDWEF

The target in test [2] is Ribosomal protein S6 kinase alpha-5 (Homo sapiens, UniProt O75582).
In test [3] the target is S-adenosylmethionine synthase isoform type-2 (Homo sapiens, UniProt P31153).
The target in test [4] is STE20-like serine/threonine-protein kinase (Homo sapiens, UniProt Q9H2G2).
Test [5] has as its target Tyrosine-protein kinase FRK (Homo sapiens, UniProt P42685).
For test [6], the target named is Tyrosine-protein kinase Fyn (Homo sapiens, UniProt P06241).
Test [7] addresses Casein kinase I isoform alpha (Homo sapiens, UniProt P48729).
In test [8] the target is T2, Serine/threonine-protein kinase TAO2 (Homo sapiens, UniProt Q9UL54).
T2 sequence (Q9UL54 whole entry): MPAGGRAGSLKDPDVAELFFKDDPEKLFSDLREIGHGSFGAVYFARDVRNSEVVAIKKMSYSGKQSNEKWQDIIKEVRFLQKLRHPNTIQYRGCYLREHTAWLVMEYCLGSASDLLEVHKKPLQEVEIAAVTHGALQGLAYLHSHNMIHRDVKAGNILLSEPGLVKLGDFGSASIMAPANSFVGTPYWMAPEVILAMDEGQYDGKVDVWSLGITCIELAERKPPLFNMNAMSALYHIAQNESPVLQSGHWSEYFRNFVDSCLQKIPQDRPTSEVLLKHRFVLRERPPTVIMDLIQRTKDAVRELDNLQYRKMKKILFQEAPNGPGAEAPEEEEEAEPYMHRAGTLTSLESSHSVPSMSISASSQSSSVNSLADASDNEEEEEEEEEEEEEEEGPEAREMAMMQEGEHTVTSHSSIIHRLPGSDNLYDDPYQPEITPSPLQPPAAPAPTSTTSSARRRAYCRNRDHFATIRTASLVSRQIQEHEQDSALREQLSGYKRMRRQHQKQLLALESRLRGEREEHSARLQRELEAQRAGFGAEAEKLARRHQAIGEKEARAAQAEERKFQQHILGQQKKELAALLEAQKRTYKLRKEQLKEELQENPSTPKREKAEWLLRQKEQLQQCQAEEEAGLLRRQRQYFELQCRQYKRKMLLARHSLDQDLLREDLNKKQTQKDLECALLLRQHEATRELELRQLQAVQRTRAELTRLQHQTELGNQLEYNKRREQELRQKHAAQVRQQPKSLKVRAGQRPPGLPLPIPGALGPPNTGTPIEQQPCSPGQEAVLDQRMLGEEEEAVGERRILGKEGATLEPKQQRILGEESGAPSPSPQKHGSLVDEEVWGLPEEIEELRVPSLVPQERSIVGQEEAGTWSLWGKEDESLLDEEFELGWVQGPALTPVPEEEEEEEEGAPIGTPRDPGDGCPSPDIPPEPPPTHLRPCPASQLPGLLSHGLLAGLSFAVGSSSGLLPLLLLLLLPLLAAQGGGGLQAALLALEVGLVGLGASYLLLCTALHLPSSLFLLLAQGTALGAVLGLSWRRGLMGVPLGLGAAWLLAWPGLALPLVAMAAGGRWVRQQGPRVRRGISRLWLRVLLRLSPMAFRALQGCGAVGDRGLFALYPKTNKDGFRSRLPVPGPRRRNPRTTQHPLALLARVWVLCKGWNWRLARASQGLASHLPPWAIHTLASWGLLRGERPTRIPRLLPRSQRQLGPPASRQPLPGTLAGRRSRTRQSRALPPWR

The target of test [9] is Protein-tyrosine kinase 2-beta (Homo sapiens, UniProt Q14289).
Test [10] concerns the target Bone morphogenetic protein receptor type-1A (Homo sapiens, UniProt P36894).
The target in test [11] is T3, EKC/KEOPS complex subunit TP53RK (Homo sapiens, UniProt Q96S44).
T3 sequence (Q96S44 whole entry): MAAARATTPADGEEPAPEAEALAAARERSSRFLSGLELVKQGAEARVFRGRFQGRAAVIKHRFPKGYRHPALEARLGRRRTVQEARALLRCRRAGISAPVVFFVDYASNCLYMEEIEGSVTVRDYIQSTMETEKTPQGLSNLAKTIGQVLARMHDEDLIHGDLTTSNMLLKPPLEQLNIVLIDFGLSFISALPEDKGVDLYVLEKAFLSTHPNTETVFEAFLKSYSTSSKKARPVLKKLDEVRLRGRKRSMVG

Test [12] deals with Putative heat shock protein HSP 90-beta 2 (Homo sapiens, UniProt Q58FF8).

Calls of active or inactive are those of the source. Cut-off read from the data, not from the text of the source, for most assays here: actives have a measured Kd and inactives only a lower limit.
Note: in the data inactive means no Kd found up to 30 µM.

Sequence of Protein-tyrosine kinase 2-beta (Q14289 whole entry): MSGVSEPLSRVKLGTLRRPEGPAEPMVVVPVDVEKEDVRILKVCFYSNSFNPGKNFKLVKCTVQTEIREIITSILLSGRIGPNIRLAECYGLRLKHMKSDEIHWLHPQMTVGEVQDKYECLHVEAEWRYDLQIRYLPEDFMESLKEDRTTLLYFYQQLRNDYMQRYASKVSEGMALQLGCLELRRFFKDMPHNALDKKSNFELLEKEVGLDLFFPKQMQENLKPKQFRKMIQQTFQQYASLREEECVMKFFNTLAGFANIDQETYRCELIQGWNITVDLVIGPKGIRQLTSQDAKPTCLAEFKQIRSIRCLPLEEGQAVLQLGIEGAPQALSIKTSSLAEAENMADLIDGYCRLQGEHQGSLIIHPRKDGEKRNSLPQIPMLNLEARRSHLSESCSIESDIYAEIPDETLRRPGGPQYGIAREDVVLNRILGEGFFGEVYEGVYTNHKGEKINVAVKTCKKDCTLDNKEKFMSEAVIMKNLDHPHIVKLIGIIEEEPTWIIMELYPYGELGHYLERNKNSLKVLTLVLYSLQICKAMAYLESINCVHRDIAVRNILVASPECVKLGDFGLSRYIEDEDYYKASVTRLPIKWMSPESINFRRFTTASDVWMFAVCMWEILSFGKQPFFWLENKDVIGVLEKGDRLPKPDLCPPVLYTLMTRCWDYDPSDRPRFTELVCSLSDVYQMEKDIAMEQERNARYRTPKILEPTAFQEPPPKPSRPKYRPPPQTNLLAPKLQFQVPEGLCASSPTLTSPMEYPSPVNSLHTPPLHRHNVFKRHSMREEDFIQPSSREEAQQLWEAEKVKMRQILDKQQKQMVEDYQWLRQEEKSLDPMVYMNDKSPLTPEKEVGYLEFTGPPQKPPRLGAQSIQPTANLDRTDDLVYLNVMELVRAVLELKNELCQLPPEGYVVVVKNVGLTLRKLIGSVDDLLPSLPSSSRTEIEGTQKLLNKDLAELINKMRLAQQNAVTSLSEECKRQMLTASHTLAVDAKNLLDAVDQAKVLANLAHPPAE
Sequence of Bone morphogenetic protein receptor type-1A (P36894 whole entry): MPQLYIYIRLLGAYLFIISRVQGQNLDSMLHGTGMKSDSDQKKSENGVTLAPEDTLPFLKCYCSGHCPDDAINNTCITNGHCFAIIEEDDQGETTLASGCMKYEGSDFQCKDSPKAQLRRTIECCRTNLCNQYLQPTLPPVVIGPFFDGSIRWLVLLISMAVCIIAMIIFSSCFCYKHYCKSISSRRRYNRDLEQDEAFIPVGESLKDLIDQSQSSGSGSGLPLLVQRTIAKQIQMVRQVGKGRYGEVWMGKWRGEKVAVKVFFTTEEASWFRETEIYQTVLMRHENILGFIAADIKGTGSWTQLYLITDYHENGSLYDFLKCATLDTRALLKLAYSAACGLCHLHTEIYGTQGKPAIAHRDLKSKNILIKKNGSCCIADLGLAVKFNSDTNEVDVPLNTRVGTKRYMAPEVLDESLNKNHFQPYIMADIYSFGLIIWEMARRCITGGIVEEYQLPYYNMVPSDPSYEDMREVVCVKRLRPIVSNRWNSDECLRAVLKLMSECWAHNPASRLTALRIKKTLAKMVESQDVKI
Sequence of S-adenosylmethionine synthase isoform type-2 (P31153 whole entry, canonical isoform): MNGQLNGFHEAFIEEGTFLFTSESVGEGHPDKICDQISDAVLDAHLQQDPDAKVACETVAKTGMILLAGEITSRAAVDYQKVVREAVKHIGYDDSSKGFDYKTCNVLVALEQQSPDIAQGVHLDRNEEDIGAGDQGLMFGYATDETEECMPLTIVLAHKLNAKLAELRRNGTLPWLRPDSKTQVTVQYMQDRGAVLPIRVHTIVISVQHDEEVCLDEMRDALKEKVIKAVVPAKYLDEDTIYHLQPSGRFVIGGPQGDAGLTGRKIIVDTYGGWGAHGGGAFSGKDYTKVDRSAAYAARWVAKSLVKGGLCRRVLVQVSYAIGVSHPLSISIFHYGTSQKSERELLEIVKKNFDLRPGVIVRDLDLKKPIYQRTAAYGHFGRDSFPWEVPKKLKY
Sequence of STE20-like serine/threonine-protein kinase (Q9H2G2 whole entry): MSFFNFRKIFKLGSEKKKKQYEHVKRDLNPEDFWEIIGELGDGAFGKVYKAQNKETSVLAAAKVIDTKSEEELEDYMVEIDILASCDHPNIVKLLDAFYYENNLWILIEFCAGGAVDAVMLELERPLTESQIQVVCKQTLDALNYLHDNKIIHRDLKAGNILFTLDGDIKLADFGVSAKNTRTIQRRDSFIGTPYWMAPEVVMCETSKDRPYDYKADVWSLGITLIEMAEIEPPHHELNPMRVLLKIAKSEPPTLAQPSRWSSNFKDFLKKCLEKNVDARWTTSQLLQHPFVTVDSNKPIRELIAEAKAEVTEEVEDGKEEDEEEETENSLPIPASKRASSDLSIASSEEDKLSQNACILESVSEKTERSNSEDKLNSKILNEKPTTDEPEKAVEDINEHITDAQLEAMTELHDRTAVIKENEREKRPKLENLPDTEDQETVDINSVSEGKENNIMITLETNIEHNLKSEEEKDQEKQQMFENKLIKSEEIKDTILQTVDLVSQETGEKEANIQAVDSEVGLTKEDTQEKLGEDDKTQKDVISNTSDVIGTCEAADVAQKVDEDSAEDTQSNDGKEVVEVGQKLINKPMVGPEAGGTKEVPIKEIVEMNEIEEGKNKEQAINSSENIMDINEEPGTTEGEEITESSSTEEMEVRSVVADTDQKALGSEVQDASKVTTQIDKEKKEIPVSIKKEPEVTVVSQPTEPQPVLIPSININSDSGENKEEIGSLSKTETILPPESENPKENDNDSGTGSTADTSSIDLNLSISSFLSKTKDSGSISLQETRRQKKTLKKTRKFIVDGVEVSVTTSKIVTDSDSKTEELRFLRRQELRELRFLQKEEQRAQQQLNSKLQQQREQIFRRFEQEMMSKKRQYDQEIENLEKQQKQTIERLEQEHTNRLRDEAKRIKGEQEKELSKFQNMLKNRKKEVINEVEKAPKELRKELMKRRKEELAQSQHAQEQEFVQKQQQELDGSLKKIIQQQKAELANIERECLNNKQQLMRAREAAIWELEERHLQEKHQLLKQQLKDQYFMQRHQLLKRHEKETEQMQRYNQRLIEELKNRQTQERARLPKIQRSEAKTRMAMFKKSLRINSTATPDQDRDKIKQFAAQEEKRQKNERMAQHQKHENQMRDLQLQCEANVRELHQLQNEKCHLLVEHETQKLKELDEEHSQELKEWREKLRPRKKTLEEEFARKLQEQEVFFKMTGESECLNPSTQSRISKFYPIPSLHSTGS
Sequence of Putative heat shock protein HSP 90-beta 2 (Q58FF8 whole entry): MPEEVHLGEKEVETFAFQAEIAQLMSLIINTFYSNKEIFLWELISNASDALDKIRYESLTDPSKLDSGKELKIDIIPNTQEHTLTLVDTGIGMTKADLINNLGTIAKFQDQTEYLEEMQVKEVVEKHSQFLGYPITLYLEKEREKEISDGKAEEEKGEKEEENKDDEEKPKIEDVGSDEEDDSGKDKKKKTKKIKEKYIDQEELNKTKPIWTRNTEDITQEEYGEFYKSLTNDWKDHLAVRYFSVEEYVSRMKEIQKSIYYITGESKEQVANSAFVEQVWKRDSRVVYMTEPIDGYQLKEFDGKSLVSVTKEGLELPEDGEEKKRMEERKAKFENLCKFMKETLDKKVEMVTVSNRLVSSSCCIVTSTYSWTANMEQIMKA
Sequence of Tyrosine-protein kinase FRK (P42685 whole entry): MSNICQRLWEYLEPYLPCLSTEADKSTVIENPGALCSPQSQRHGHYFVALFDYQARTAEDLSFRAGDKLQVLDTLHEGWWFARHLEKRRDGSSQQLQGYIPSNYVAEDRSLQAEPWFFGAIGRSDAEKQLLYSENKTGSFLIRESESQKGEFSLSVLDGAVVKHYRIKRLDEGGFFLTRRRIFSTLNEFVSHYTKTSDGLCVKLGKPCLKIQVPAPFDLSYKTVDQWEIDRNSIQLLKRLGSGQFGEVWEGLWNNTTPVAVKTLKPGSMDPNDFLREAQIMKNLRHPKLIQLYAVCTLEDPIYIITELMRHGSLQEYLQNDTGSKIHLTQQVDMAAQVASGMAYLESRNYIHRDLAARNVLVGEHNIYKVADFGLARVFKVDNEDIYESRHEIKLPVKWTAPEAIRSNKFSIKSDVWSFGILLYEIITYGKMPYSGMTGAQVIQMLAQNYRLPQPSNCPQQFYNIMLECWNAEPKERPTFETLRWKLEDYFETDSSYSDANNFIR
Sequence of Tyrosine-protein kinase Fyn (P06241 whole entry, canonical isoform): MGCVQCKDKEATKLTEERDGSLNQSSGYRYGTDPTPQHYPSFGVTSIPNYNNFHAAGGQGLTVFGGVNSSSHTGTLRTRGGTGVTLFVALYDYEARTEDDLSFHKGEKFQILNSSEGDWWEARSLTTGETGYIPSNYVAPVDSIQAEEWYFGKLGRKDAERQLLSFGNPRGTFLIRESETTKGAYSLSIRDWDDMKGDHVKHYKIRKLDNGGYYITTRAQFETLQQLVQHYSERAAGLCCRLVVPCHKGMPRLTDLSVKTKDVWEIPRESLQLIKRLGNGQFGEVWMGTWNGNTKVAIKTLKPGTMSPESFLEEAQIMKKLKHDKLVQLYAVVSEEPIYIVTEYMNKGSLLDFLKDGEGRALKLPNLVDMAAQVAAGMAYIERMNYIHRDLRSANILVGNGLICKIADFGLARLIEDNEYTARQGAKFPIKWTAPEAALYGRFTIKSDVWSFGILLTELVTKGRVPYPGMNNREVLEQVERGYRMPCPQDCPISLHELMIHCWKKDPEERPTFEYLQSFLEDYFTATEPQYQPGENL
Sequence of Casein kinase I isoform alpha (P48729 whole entry, canonical isoform): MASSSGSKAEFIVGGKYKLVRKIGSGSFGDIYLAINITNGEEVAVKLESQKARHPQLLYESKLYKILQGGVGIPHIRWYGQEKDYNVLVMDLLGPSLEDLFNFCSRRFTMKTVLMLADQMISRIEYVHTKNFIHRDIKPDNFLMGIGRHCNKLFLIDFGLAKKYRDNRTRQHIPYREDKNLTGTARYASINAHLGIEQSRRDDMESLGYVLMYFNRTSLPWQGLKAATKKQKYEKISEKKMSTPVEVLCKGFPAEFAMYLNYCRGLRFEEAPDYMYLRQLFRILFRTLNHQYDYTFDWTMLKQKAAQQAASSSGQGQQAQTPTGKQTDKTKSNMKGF

For orientation: Kd means the concentration at which binding is half-saturated. On to `CNC(=O)CN1CCC(Oc2cc3c(Nc4cccc(Cl)c4F)ncnc3cc2OC)CC1` [SAPITINIB], for which the Kd in test [1], in [2], in test [3], in test [4], in test [5] and in test [6] was > 30 µM (inactive) each time. Also, the Kd in [7], in test [8], in test [9], in test [10], in [11] and in test [12] was > 30 µM (inactive) throughout.

`O=C(c1ccc(F)c(F)c1Nc1ccc(I)cc1F)N1CC(O)([C@@H]2CCCCN2)C1` [COBIMETINIB]: the Kd in test [1], in test [2], in [3], in test [4], in test [5] and in [6] was > 30 µM (inactive) in each case. The Kd in test [7], in [8], in [9], in test [10], in test [11] and in test [12] was > 30 µM (inactive) in each case.

Take `CCS(=O)(=O)N1CC(CC#N)(n2cc(-c3ncnc4[nH]ccc34)cn2)C1` [BARICITINIB]: the Kd in test [1], in test [2], in test [3], in test [4], in [5] and in [6] was > 30 µM (inactive) each time. For the same compound, the Kd in test [7], in [8], in test [9], in [10], in [11] and in test [12] was > 30 µM (inactive) throughout.

On to `Cc1ccc(-n2nc(C(C)(C)C)cc2NC(=O)NCc2cc(F)ccc2Oc2ccc3c(cnn3CCO)c2)cc1` [PEXMETINIB], for which the Kd in test [1] was > 30 µM (inactive); in [2], > 30 µM (inactive); in test [3], > 30 µM (inactive); in [4], > 30 µM (inactive); in test [5], 1.55 µM (active); in test [6], 2.14 µM. The Kd was > 30 µM (inactive) in test [7]; > 30 µM (inactive) in test [8]; 30.4 µM (active) in test [9]; > 30 µM (inactive) in [10]; > 30 µM (inactive) in [11]; > 30 µM (inactive) in [12].

Take `CNS(=O)(=O)Nc1nccc(Cc2c(C)c3ccc(Oc4ncccn4)cc3oc2=O)c1F` [AVUTOMETINIB]: the Kd in test [1], in test [2], in [3], in test [4], in test [5] and in [6] was > 30 µM (inactive) in each case. Also, the Kd in [7], in test [8], in test [9], in test [10], in [11] and in test [12] was > 30 µM (inactive) throughout.

In the case of `COc1ccc(-c2ccc3c(N4CCOC[C@@H]4C)nc(N4CCOC[C@@H]4C)nc3n2)cc1CO` [AZD-8055], the Kd in test [1], in test [2], in test [3], in test [4], in [5] and in test [6] was > 30 µM (inactive) throughout. Further, the Kd in [7], in [8], in test [9], in test [10], in [11] and in test [12] was > 30 µM (inactive) in each case.

For the compound `C1=C/COCc2cc(ccc2OCCN2CCCC2)Nc2nccc(n2)-c2cccc(c2)COC/1` [PACRITINIB], the Kd in test [1], in test [2], in [3], in test [4], in [5] and in test [6] was > 30 µM (inactive) in each case. Further, the Kd in test [7] is > 30 µM (inactive); in test [8], 3.37 µM (active); in [9], > 30 µM (inactive); in test [10] it was > 30 µM (inactive); in test [11] it was > 30 µM (inactive); in test [12], > 30 µM (inactive).

Consider `O=C(O)[C@]1(Cc2cccc(Nc3nccs3)n2)CC[C@@H](Oc2cccc(Cl)c2F)CC1` [MK-5108], for which the Kd is > 30 µM (inactive) in [1]; > 30 µM (inactive) in test [2]; > 30 µM (inactive) in test [3]; > 30 µM (inactive) in test [4]; 0.724 µM (active) in [5]; > 30 µM (inactive) in [6]. Further, the Kd is > 30 µM (inactive) in test [7]; > 30 µM (inactive) in test [8]; 0.343 µM (active) in test [9]; > 30 µM (inactive) in [10]; > 30 µM (inactive) in [11]; > 30 µM (inactive) in [12].

With `COc1cc(N2CCC(N3CCN(C)CC3)CC2)ccc1Nc1ncnc(Nc2ccccc2S(=O)(=O)C(C)C)n1` [ASP-3026], the Kd in test [1] is > 30 µM (inactive); in test [2], > 30 µM (inactive); in test [3], > 30 µM (inactive); in test [4] it was 36.3 µM (active); in test [5], 0.39 µM (active); in test [6] it was 1.53 µM (active). In addition, the Kd in test [7] is > 30 µM (inactive); in [8], > 30 µM (inactive); in test [9], 0.273 µM (active); in test [10] it was > 30 µM (inactive); in [11] it was > 30 µM (inactive); in [12] it was > 30 µM (inactive).

In the case of `CN1CCC(CNc2ccc3ncc(-c4cccc(OC(F)(F)F)c4)n3n2)CC1` [SGI-1776], the Kd was > 30 µM (inactive) in test [1]; > 30 µM (inactive) in test [2]; > 30 µM (inactive) in [3]; 3.59 µM (active) in test [4]; > 30 µM (inactive) in [5]; > 30 µM (inactive) in test [6]. The Kd in test [7], in [8], in test [9], in [10], in [11] and in [12] was > 30 µM (inactive) throughout.
